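Cultured in 96-well plates, cells were exposed to test compound for 48 hours across five concentrations. GI50 = concentration required for 50% inhibition of growth.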 The source made the active and inactive calls. No stated cut-off is given here; in the data, active = GI50 up to about 1.1 µM and inactive = higher.
How the values were obtained:
Experiment in all cases: NCI-60 cell line screen, 48 h
NCI-H226 = test system: NCI-H226
A549 = test system: A549
786-0 = test system: 786-0
SW-620 = test system: SW-620
SN12C = test system: SN12C
SR = test system: SR
U-251 = test system: U-251
OVCAR-8 = test system: OVCAR-8
EKVX = test system: EKVX
TK-10 = test system: TK-10
NCI-H23 = test system: NCI-H23
SF-295 = test system: SF-295
IGROV-1 = test system: IGROV-1
SK-MEL-28 = test system: SK-MEL-28
KM12 = test system: KM12
UACC-62 = test system: UACC-62

Measured: GI50

Nc1nc(Cl)cc(NCCCCCCCCNc2cc(Cl)nc(N)n2)n1
inactive: NCI-H226 6.24 µM | A549 3.56 µM | 786-0 25.8 µM | SW-620 36.8 µM | SN12C 57.4 µM | SR 3.61 µM | U-251 25.6 µM | OVCAR-8 11.7 µM | EKVX > 100 µM | TK-10 14.9 µM | NCI-H23 1.22 µM | SF-295 1.48 µM | IGROV-1 23.7 µM | SK-MEL-28 31.8 µM | KM12 14.7 µM | UACC-62 1.36 µM

COc1ccc2c(c1)C(=O)C1CC(=O)CCC21 (stereo not drawn)
inactive: NCI-H226 > 100 µM | A549 > 100 µM | 786-0 > 100 µM | SW-620 > 100 µM | SN12C > 100 µM | SR > 100 µM | U-251 > 100 µM | OVCAR-8 > 100 µM | EKVX > 100 µM | TK-10 > 100 µM | NCI-H23 > 100 µM | SF-295 > 100 µM | IGROV-1 > 100 µM | SK-MEL-28 > 100 µM | KM12 > 100 µM | UACC-62 > 100 µM

O=C(O)c1c([N+](=O)[O-])cc(C(F)(F)F)cc1[N+](=O)[O-]
inactive: NCI-H226 > 100 µM | A549 > 100 µM | 786-0 > 100 µM | SW-620 > 100 µM | SN12C > 100 µM | SR > 100 µM | U-251 > 100 µM | OVCAR-8 > 100 µM | EKVX > 100 µM | TK-10 > 100 µM | NCI-H23 > 100 µM | SF-295 > 100 µM | IGROV-1 > 100 µM | SK-MEL-28 > 100 µM | KM12 > 100 µM

O=C1O[C@H](c2ccccc2)[C@@H]2CC3(CCN12)OCCO3
inactive: NCI-H226 > 100 µM | A549 > 100 µM | 786-0 > 100 µM | SW-620 > 100 µM | SN12C > 100 µM | SR > 100 µM | U-251 > 100 µM | OVCAR-8 > 100 µM | EKVX > 100 µM | TK-10 > 100 µM | NCI-H23 68.9 µM | SF-295 > 100 µM | IGROV-1 > 100 µM | SK-MEL-28 > 100 µM | KM12 > 100 µM | UACC-62 > 100 µM

CCCCOC(=O)CNC(=O)OC/C=C/C#CC#C/C=C/COC(=O)NCC(=O)OCCCC
inactive: NCI-H226 > 10 µM | A549 > 10 µM | 786-0 68.7 µM | SW-620 > 100 µM | SN12C > 10 µM | SR > 10 µM | U-251 > 10 µM | OVCAR-8 > 10 µM | EKVX > 10 µM | TK-10 > 10 µM | NCI-H23 > 10 µM | SF-295 > 10 µM | IGROV-1 > 10 µM | SK-MEL-28 > 10 µM | KM12 > 10 µM | UACC-62 > 10 µM

CC(CCCOC(c1ccccc1)(c1ccccc1)c1ccccc1)OC(=O)Nc1ccccc1 (stereo not drawn)
inactive: NCI-H226 12.6 µM | A549 11.1 µM | 786-0 16.1 µM | SW-620 14.4 µM | SN12C 12 µM | SR 18.6 µM | U-251 13.6 µM | OVCAR-8 14 µM | TK-10 20.4 µM | NCI-H23 9.84 µM | SF-295 12.7 µM | IGROV-1 16.4 µM | SK-MEL-28 15.3 µM | KM12 14 µM | UACC-62 12.8 µM

CC(=O)N1[C@H](C(=O)O)CS[C@H]1c1ccc(F)cc1
inactive: NCI-H226 > 100 µM | A549 > 100 µM | 786-0 > 100 µM | SW-620 > 100 µM | SN12C > 100 µM | SR > 100 µM | OVCAR-8 > 100 µM | TK-10 > 100 µM | NCI-H23 > 100 µM | SF-295 > 100 µM | IGROV-1 > 100 µM | SK-MEL-28 > 100 µM

O=C1OC(=O)C23CSCC12C1C=CC3O1 (stereo not drawn)
inactive: NCI-H226 > 100 µM | A549 > 100 µM | 786-0 > 100 µM | SW-620 > 100 µM | SN12C > 100 µM | U-251 > 100 µM | OVCAR-8 > 100 µM | EKVX > 100 µM | TK-10 > 100 µM | NCI-H23 > 100 µM | SF-295 > 100 µM | IGROV-1 > 100 µM | SK-MEL-28 > 100 µM | KM12 > 100 µM | UACC-62 > 100 µM

N#CC1CC2(C1)OCCS2 (stereo not drawn)
inactive: NCI-H226 > 100 µM | A549 > 100 µM | 786-0 > 100 µM | SW-620 > 100 µM | SN12C > 100 µM | SR > 100 µM | U-251 > 100 µM | OVCAR-8 > 100 µM | EKVX > 100 µM | TK-10 > 100 µM | NCI-H23 > 100 µM | SF-295 > 100 µM | IGROV-1 > 100 µM | SK-MEL-28 > 100 µM | KM12 > 100 µM | UACC-62 > 100 µM

CCC1(C(=O)OC)CCc2c(OC)ccc(OC)c2C1=O (stereo not drawn)
inactive: A549 > 100 µM | 786-0 > 100 µM | SW-620 > 100 µM | SN12C > 100 µM | U-251 > 100 µM | OVCAR-8 > 100 µM | EKVX > 100 µM | TK-10 > 100 µM | NCI-H23 > 100 µM | SF-295 > 100 µM | IGROV-1 > 100 µM | SK-MEL-28 > 100 µM | KM12 > 100 µM | UACC-62 > 100 µM

C/C(CCn1[nH]c(=O)ccc1=O)=N\NC(=O)C(N)=O
inactive: NCI-H226 > 100 µM | A549 > 100 µM | 786-0 > 100 µM | SW-620 > 100 µM | SN12C > 100 µM | U-251 > 100 µM | OVCAR-8 > 100 µM | EKVX > 100 µM | TK-10 > 100 µM | NCI-H23 > 100 µM | SF-295 > 100 µM | IGROV-1 > 100 µM | SK-MEL-28 > 100 µM | KM12 > 100 µM | UACC-62 > 100 µM

Cc1c(Cl)cccc1N1C(=O)C(Cl)=C(Cl)C1=O
inactive: NCI-H226 > 100 µM | A549 > 100 µM | 786-0 98.6 µM | SW-620 > 58.2 µM | SN12C > 100 µM | SR 34.2 µM | U-251 > 100 µM | OVCAR-8 > 100 µM | EKVX > 100 µM | TK-10 > 100 µM | NCI-H23 > 100 µM | SF-295 > 100 µM | IGROV-1 > 100 µM | SK-MEL-28 > 100 µM | KM12 > 100 µM | UACC-62 > 100 µM

COc1ccc(/C(C)=N/NC(N)=S)c(OC)c1
inactive: NCI-H226 > 100 µM | A549 > 100 µM | 786-0 > 100 µM | SW-620 43.3 µM | SN12C > 100 µM | SR > 100 µM | U-251 49.1 µM | OVCAR-8 > 100 µM | EKVX 63.4 µM | TK-10 > 100 µM | NCI-H23 > 100 µM | SF-295 > 100 µM | IGROV-1 > 100 µM | SK-MEL-28 > 100 µM | KM12 > 100 µM | UACC-62 > 100 µM

CCOC(=O)c1cn(Cc2ccccc2)c(=O)n1Cc1ccccc1
inactive: NCI-H226 > 100 µM | A549 75 µM | 786-0 > 100 µM | SW-620 > 100 µM | SN12C > 100 µM | U-251 > 100 µM | OVCAR-8 > 100 µM | EKVX > 100 µM | TK-10 > 100 µM | NCI-H23 > 100 µM | SF-295 67.1 µM | IGROV-1 > 100 µM | SK-MEL-28 > 100 µM | KM12 > 100 µM | UACC-62 > 100 µM

O=C(O)C1C2CC3CC2CC31 (stereo not drawn)
inactive: A549 > 100 µM | 786-0 > 100 µM | SW-620 > 100 µM | SN12C > 100 µM | U-251 > 100 µM | OVCAR-8 > 100 µM | EKVX > 100 µM | TK-10 > 100 µM | NCI-H23 > 100 µM | SF-295 > 100 µM | IGROV-1 > 100 µM | SK-MEL-28 > 100 µM | KM12 > 100 µM | UACC-62 > 100 µM

Clc1ccccc1C1N2CCCCC2[C@@H]2c3[nH]c4ccccc4c3CCN12 (stereo partly drawn)
inactive: A549 > 10 µM | 786-0 21.2 µM | SW-620 17.3 µM | SN12C 16.7 µM | U-251 17.7 µM | OVCAR-8 19.8 µM | EKVX 40.1 µM | TK-10 23.8 µM | NCI-H23 23.6 µM | SF-295 25.4 µM | IGROV-1 35.1 µM | SK-MEL-28 18.5 µM | UACC-62 15 µM

CC(C)(O)[C@@H]1CC[C@@]2(C)CCCC(O)C2(O)C1 (stereo partly drawn)
inactive: NCI-H226 > 100 µM | A549 > 100 µM | 786-0 > 100 µM | SW-620 > 100 µM | SN12C > 100 µM | SR > 100 µM | U-251 > 100 µM | OVCAR-8 > 100 µM | TK-10 > 100 µM | NCI-H23 > 100 µM | SF-295 > 100 µM | IGROV-1 > 100 µM | SK-MEL-28 > 100 µM | KM12 > 100 µM | UACC-62 > 100 µM

CCOC(=O)C[C@@]12CCCNC1(C)CCc1ccccc12 (stereo partly drawn)
inactive: NCI-H226 > 100 µM | A549 > 100 µM | 786-0 > 100 µM | SW-620 > 100 µM | SN12C > 100 µM | U-251 > 100 µM | OVCAR-8 > 100 µM | EKVX > 100 µM | TK-10 > 100 µM | SF-295 52.5 µM | IGROV-1 > 100 µM | KM12 > 100 µM | UACC-62 > 100 µM

From ChEMBL document CHEMBL1201862, “PubChem BioAssay data set” (2004)
